Experimental data published in patent publication US6334445B1, “Methods and compositions for treatment of ovarian cancer” (Baker Norton Pharmaceuticals, Inc., priority 1997, dated 2002).
Read-outs that look alike come from different tables or passages of the source.

Assays:
[1] = infusion times 3 to 24 hours; cited from earlier work
breast cancer [2] = conditions: cited from earlier work
breast cancer [3] = conditions: paclitaxel 135 mg/m^2 in combination with cisplatin 75 mg/m^2; cited from earlier work
ovarian cancer = conditions: cited from earlier work
mammalian cells = conditions: 50 nM paclitaxel concentration; cited from earlier work

Description for ovarian carcinoma: Patients with taxane-resistant ovarian cancer are defined as having (1) progression of disease while receiving taxane therapy; (2) progression within 12 months of taxane therapy; (3) persistent stable disease after six courses of taxane therapy; or (4) persistent stable disease with at least CA-125 rising measurements (to a value of ≧100).
Patients without liver metastases and who had mild liver function abnormalities (SGOT and alkaline phosphatase less than 1.5 times upper normal limit) and a normal bilirubin received a total dose of 140 mg/m^2.
Each mL of sterile solution contains 527 mg polyoxyethylated castor oil (Cremaphor® EL) and 49.7% (w/v) absolute alcohol.
The in-line filter was then connected to the subjects central access device.
The procedure was repeated three more times, for a total 96 hour continuous infusion. The final dose was 140 mg/m^2/96 hours.
Complete response (CR): Complete disappearance of all clinical evidence of disease persisting through the next evaluation period at 6 weeks. Evaluable lesions must have disappeared completely.
Partial Response (PR): At least 50% decrease in the sum of the products of the diameters of all measurable lesions persisting through the next evaluation period at six weeks. In addition, concomitant evaluable lesions must show no evidence of progressive disease or new lesions.
Progressive Disease (PD): 25% or greater progression in the sum of the products of the diameter of any measurable lesion(s) over one cycle of chemotherapy or the appearance of any new lesion consistent with metastatic disease.

Which partial responses (ovarian carcinoma; of 14 patients, 140 mg/m^2 over 96 hour infusion every 21 days) does the source give for `CC(=O)O[C@H]1C(=O)[C@@]2(C)[C@H]([C@H](OC(=O)c3ccccc3)[C@]3(O)C[C@H](OC(=O)[C@H](O)[C@@H](NC(=O)c4ccccc4)c4ccccc4)C(C)=C1C3(C)C)[C@]1(OC(C)=O)CO[C@@H]1C[C@@H]2O` [paclitaxel, 5β, 20-epoxy-1 ,2α4,7β10β13α-hexahydroxytax-11-en-9-one 4, 10-diacetate 2-benzoate 12-ester with (2R,3S)-Nbenzoyl-3-phenylisososerine] here?
Its partial responses is 3.

And the “patients with stable disease” value (ovarian carcinoma; of 14 patients, 96 hour infusion)?
Its value is “One”.

And the overall response rate (ovarian carcinoma; partial responses plus stable disease, 14 patients, 96 hour infusion)?
Its overall response rate is 29%.

And the response rate (ovarian carcinoma; partial responses, 14 patients, 96 hour infusion)?
Its response rate is 21%.

What about the dose limiting toxicity [1] of the same compound?
The dose limiting toxicity was “reversible myelosuppression”.

What about the response rate (breast cancer [2]; doses of 250 mg/m^2 with G-CSF, single agent) of the same compound?
The response rate was 36-71%.

And the response rate (breast cancer [2]; doses of 135 to 175 mg/m^2, single agent)?
Its response rate is 13-37%.

What about the response rate (breast cancer [3]) of the same compound?
The response rate was 79%.

What about the response rate (ovarian cancer; 135 mg/m^2 every three weeks) of the same compound?
The response rate was 15%.

What about the response rate (ovarian cancer; 175 mg/m^2 every three weeks) of the same compound?
The response rate was 20%.

What about the “time to tumor progression” value (ovarian cancer; higher dose (175 mg/m^2)) of the same compound?
The value was 19 weeks.

And the “time to tumor progression” value (ovarian cancer; lower dose (135 mg/m^2))?
Its value is 14 weeks.

What about the “effect on microtubules and cells” value (mammalian cells) of the same compound?
Its value is “significant increase in microtubule number”.
